Article PMC2865235 (Journal of pharmaceutical and biomedical analysis, 2010)
Read-outs that look alike come from different tables or passages of the source.

What was measured:
[1] = tested on: ABCG2; details: cited from earlier work
[2] = tested on: ABCB1; details: cited from earlier work
[3] = human, 4 h
[4] = tested on: MCF-7 cells; details: read-out: 72 h IC50, ref [2]; cited from earlier work
[5] = tested on: P388 cells; details: read-out: 72 h IC50, ref [2]; cited from earlier work
[6] = tested on: Topo I cleavage complexes; details: drug 1 μM, compared with CPT or SN-38; ref [2]; cited from earlier work
[7] = tested on: cell cycle; details: in vitro; ref [2]; cited from earlier work
[8] = tested on: HCT-116 cells; details: read-out: 72 h IC50, ref [2]; cited from earlier work

| Stability in plasma at room temperature [3] [%] | Protein binding in human plasma [%] | SMILES | Substrate for the efflux pump ABCG2 ([1]; ref [2]) | Substrate for the efflux pump ABCG2 ([1]; not told) | Substrate for ABCB1 [2] | IC50 [4] [nM] | IC50 [5] [nM] | Persistence of Topo I cleavage complexes after removal of drug [6] | Cell cycle arrest [7] | IC50 [8] [nM] |
| --- | --- | --- | --- | --- | --- | --- | --- | --- | --- | --- |
|  |  | CC[C@@]1(O)C(=O)OCc2c1cc1n(c2=O)Cc2cc3ccccc3nc2-1 [Camptothecin, camptothecin] | good substrates |  |  |  |  |  |  |  |
|  |  | COc1cc2c3c(n(CCCN4CCOCC4)c(=O)c2cc1OC)-c1cc2c(cc1C3=O)OCO2 [NSC 724998] |  | not a substrate | not a substrate |  |  |  |  |  |
| > 94.3 | > 98 | COc1cc2c3c(n(CCCn4ccnc4)c(=O)c2cc1OC)-c1cc2c(cc1C3=O)OCO2 [NSC 725776] |  | moderate substrate | moderate substrate | 90 | < 30 | persisted longer | cell cycle arrest in both S and G(2)-M | 130 |
| > 94.3 | > 98 | COc1cc2c3c(n(CCCN4CCOCC4)c(=O)c2cc1OC)-c1cc2c(cc1C3=O)OCO2.Cl [NSC 743400] |  |  |  | 560 | 300 | persisted longer | cell cycle arrest in both S and G(2)-M | 1200 |
|  |  | CCc1c2c(nc3ccc(O)cc13)-c1cc3c(c(=O)n1C2)COC(=O)[C@]3(O)CC [SN-38] | good substrates |  |  |  |  |  |  |  |
|  |  | CC[C@@]1(O)C(=O)OCc2c1cc1n(c2=O)Cc2cc3c(CN(C)C)c(O)ccc3nc2-1 [topotecan] | good substrates |  |  |  |  |  |  |  |
